Reference: US20220296534A1 (SOCIETE DES PRODUITS NESTLE S.A., priority 2019, published 2022)

What was measured:
[1] = humans; cited from earlier work
INS-1 cells = test: Glucose stimulated insulin secretion (GSIS) in INS-1 cells, insulin by ELISA; assay type: cell-based, rat; conditions: FIG. 2
Protocol: INS-1 cellular model: The β pancreatic INS-1 cells were selected for their insulin secretion profile in response to glucose and to other physiological or pharmacological insulin secretagogues such as sulfonylureas and GLP-1. The cells were cultured in complete medium, RPMI 1640 11 mM glucose supplemented with 1 mM sodium pyruvate, 50 μM 2-mercaptoethanol, 2 mM glutamine, 10 mM HEPES, 100 IU/mL penicillin, 100 μg/mL streptomycin and 10% heat-inactivated foetal calf serum (FCS), as described by Asfari et al. (Endocrinology 130: 167-178, 1992). For the insulin secretion assay, INS-1 cells were plated and cultured in 96-well poly ornithine coated plates. The day before insulin secretion test, the medium were removed and replaced by RPMI 5 mM glucose supplemented with FCS 1%. The day of the insulin secretion test, the cells were washed with Krebs-Ringer Bicarbonate HEPES buffer (KRBH; pH 7.4) 0.1% BSA and pre-incubated for 30 min at 37° C. in KRBH 0.1% BSA containing 2.8 mM glucose. The cells were then washed again with KRBH and incubated with the tested ingredients for 60 min in KRBH 0.1% BSA containing glucose (5 or 16 mM). The supernatants were collected and frozen before insulin determination. The insulin concentration in the collected supernatants were measured by an ELISA kit according to the manufacturer recommendations and using a rat insulin antibody (Insulin rat high range ELISA Alpco Cat no 80-INSRTH-E10). Very briefly, rat monoclonal antibodies specific for insulin were immobilized to 96-well plates. Standards, samples and controls were added to the appropriate wells with a horseradish peroxidase enzyme-labeled monoclonal antibody (Conjugate). After incubation, the microplates were washed to remove unbound Conjugate and a TMB substrate solution was added to react with the bound Conjugate. Finally, after addition of a stop solution, the optical density was measured at 450 nm using a reference wavelength of 620 nm. The intensity of the yellow color is directly proportional to the amount of insulin within the samples. […]

human primary islets = test: Glucose stimulated insulin secretion in human primary islets, insulin by ELISA; assay type: cell-based; conditions: 1 μM, FIG. 3
Protocol: The insulin concentration in the collected supernatants were measured by an ELISA kit according to the manufacturer recommendations and using a rat insulin antibody (Insulin rat high range ELISA Alpco Cat no 80-INSRTH-E10). Very briefly, rat monoclonal antibodies specific for insulin were immobilized to 96-well plates. Standards, samples and controls were added to the appropriate wells with a horseradish peroxidase enzyme-labeled monoclonal antibody (Conjugate). After incubation, the microplates were washed to remove unbound Conjugate and a TMB substrate solution was added to react with the bound Conjugate. Finally, after addition of a stop solution, the optical density was measured at 450 nm using a reference wavelength of 620 nm. The intensity of the yellow color is directly proportional to the amount of insulin within the samples. Human primary islets: Human islets from non-diabetic deceased male donors were purchased from Tebu-bio (Le-Perray-en-Yvelines, France). […] Insulin in supernatants was determined with specific ELISA kits, according to the manufacturer's instructions (Ultrasensitive Insulin ELISA, ALPCO Diagnostics, Salem, USA). […] Insulin was measured in the cell lysates using specific ELISA kits (Ultrasensitive Insulin ELISA, ALPCO Diagnostics) and normalised to DNA content.

For `O[C@H]1[C@H](O)[C@@H](O)[C@H](O)[C@@H](O)[C@@H]1O` [scyllo-inositol, (1r,2r,3r,4r,5r,6r)-Cyclohexane-1,2,3,4,5,6-hexol], the “mean time to reach the maximum level after ingestion” value [1] is given as “about 3.8 h”, the “glucose stimulated insulin secretion (GSIS), expressed as a percentage versus glucose” value (INS-1 cells; 20 μM scyllo-inositol) is given as 120% and the “glucose stimulated insulin secretion (GSIS), expressed as a percentage versus glucose” value (INS-1 cells; 2000 μM scyllo-inositol) is given as 142%. The “concentration at which GSIS reaches a plateau” value (INS-1 cells; doses from 20 to 2000 μM) was 1000 to 2000 µM and the “effect on insulin secretion over the control condition (5 mM glucose)” value (human primary islets) was “synergistic effect”.
